From paper PMC6326163, “Choline Is an Intracellular Messenger Linking Extracellular Stimuli to IP3-Evoked Ca^2+ Signals through Sigma-1 Receptors” (Cell Reports, 2019)
Where two headings read alike, the source gives them in different places.

Target: T1, Sigma-1 receptor (Sig-1R) (Homo sapiens, UniProt Q99720)
T1 construct: gene SIGMAR1; human Sig-1R-GFP stably expressed in Neuro-2A cell membranes
Experiment: [3H](+)-pentazocine competition radioligand binding, membranes

T1 sequence (Q99720 whole entry): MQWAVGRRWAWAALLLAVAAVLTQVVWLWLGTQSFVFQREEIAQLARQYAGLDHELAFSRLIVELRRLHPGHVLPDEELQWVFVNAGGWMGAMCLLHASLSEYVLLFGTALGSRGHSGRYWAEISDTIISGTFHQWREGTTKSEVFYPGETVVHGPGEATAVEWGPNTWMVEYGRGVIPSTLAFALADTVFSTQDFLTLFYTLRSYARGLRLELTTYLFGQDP

| Compound | Ki | Ki (read-out: Ki) |
| --- | --- | --- |
| C[N+](C)(C)CCO [Choline] | 525 µM | – |
| CC(=O)OCC[N+](C)(C)C [acetylcholine] | – | ~12000 µM |
| C[N+](C)(C)CC(=O)O [betaine] | – | 1320 µM |
